≈ marks a conversion by molar mass, not a printed value. Where two headings read alike, the source gives them in different places. No end group written: not given here.
Experiments:
[1] = system: L. anguillarum; assay type: cell-based, Listonella (Vibrio) anguillarum; conditions: lowest concentration causing optical density less than 50% of growth control
Experimental: (§1) The Gram-negative bacteria Listonella (Vibrio) anguillarum, serotype O2 (FT 1801, also coded as AL 104/LFI 6004), originally isolated from Atlantic salmon by staff of the Norwegian Veterinary Institute (Oslo, Norway), Escherichia con (ATCC 25922), and the Gram-positive bacteria Staphylococcus aureus (ATCC 9144) and Corynebacterium glutamicum (ATCC 13032) were used as test organisms. All isolates were grown at room temperature in Mueller Hinton Broth (MBB; Difco Laboratories, Detroit, U.S.A).
(§2) The antibacterial activities of the obtained HPLC fractions were determined by continuous monitoring of bacterial growth with a Bioscreen C microbiology reader (Labsystems Oy, Helsinki, Finland). The test was performed in 100-well flat-bottomed honeycomb plates, in which […] of test fractions were incubated with 50 μl of a suspension of an actively growing culture of bacteria diluted to a starting concentration of 5×10^3 cells per well. The growth chamber was maintained at 20° C. during the incubation period. The absorbance was measured at 2 h intervals for 48 h by a turbidometric method with vertical light photometry and a wide band filter (420-580 nm), which is more insensitive to colour change in the sample compared to single wavelength detection. Cecropin P1(0.5 μg/ml) was used as a positive control during these experiments. Antibacterial activity was determined when the optical density (OD) of the growth control (bacteria plus water) reached an absorbance of approximately 0.3. Fractions were regarded as active when the OD was less than 50% of the growth control.
(§3) The polypeptides of the present invention were isolated and subsequently tested for activity. A serial dilution method was employed to examine the antibacterial activity of the peptides. Two Gram-negative bacteria, L. anguillarum and E. coli, and two Gram-positive bacteria, C. glutamicum and S. aureus, were chosen as test bacteria. The polypeptides of the present invention were active against both Gram-positive and Gram-negative bacteria (table 4).

[2] = system: C. glutamicum; assay type: cell-based, Corynebacterium glutamicum; conditions: lowest concentration causing optical density less than 50% of growth control
Experimental: as §1, §2, §3

[3] = system: Escherichia coli, K15-58; assay type: cell-based; conditions: clinical isolate; 37° C.; 3×10^6 cells per ml
Experimental: (§4) The antibacterial activities of the different peptides were determined by continuous monitoring of bacterial growth with a Bioscreen C microbiology reader (Labsystems Oy, Helsinki, Finland). The test was performed in 100-well flat-bottomed honeycomb plates, in which 50 μl of test fractions were incubated with 50 μl of a suspension of an actively growing culture of bacteria diluted in Mueller Hinton medium to a starting concentration of 3×10^4 cells per ml. The Gram-negative bacteria, Listonella (Vibrio) anguillarum, serotype O2 (FT 1801, a fish pathogenic strain), Pseudomonas aeruginosa and E. coli (ATCC 25922), and the Gram-positive bacteria, C. glutamicum (ATCC 13032) and S. aureus (ATCC 9144), were chosen as test bacteria. The growth chamber was maintained at either 20 or 37° C. during the incubation period. The absorbance was measured at 2 h intervals for 48 h by a turbidometric method with vertical light photometry and a wide band filter (420-580 nm), which is more insensitive to color change in the sample compared to single wavelength detection. Antibacterial activity was determined when the optical density (OD) of the growth control (bacteria plus water) reached an absorbance of 0.3-0.4. Fractions were regarded as active when the OD was less than 50% of the growth control. Polymyxin B (Sigma, St. Louis, Mo., USA), Lactoferricin B, Cecropin P1 and Hyalophora cecropia Cecropin B were used as reference.
(§5) The antimicrobial molecules were also tested against drug resistant clinical isolates, such as the commonly encountered multi-resistant human pathogen S. aureus (MRSA) K15-64 and the glycopeptide (vancomycin)-resistant Enterococccus faecium (GREF) K9-28. The non-clinical isolates Escherichia coli (ATCC 25922), Pseudomonas aeruginosa (ATCC 27853), Corynebacterium glutamicum (ATCC 13032), and Staphylococcus aureus (ATCC 9144) were also tested for comparison. Serial dilutions of synthetic peptides were made in double distilled water and tested according to the method described above. However, in these experiments the starting concentration of bacteria were 3×10^6 cells per ml and the temperature in the growth chamber was 37° C. Polymyxin B was used as positive control for the Gram-negative bacteria.

[4] = system: Salmonella K14-40; assay type: cell-based; conditions: clinical isolate; 37° C.; 3×10^6 cells per ml
Experimental: as §4, §5

[5] = system: Acinetobacter baumannilii, K15-9; assay type: cell-based; conditions: clinical isolate; 37° C.; 3×10^6 cells per ml
Experimental: as §4, §5

[6] = system: Pseudomonas K15-60; assay type: cell-based; conditions: clinical isolate; 37° C.; 3×10^6 cells per ml
Experimental: as §4, §5

[7] = system: Klebsiella K15-72; assay type: cell-based; conditions: clinical isolate; 37° C.; 3×10^6 cells per ml
Experimental: as §4, §5

[8] = system: Citrobacter freundii, K15-75; assay type: cell-based; conditions: clinical isolate; 37° C.; 3×10^6 cells per ml
Experimental: as §4, §5

[9] = system: E. coli; assay type: cell-based, Escherichia coli; conditions: lowest concentration causing optical density less than 50% of growth control
Experimental: as §1, §2, §3

[10] = system: S. aureus; assay type: cell-based, Staphylococcus aureus; conditions: lowest concentration causing optical density less than 50% of growth control
Experimental: as §1, §2, §3

[11] = system: human colorectal adenocarcinoma cell line HT-29; assay type: cell-based; conditions: 24 hours, maximum 200 μg/ml
Experimental: (§6) The cytotoxic effects of the peptides on different human tumour cells were measured using the MTT colorimetric assay (Mosmann, 1983). […] Dissolved MIT is converted to an insoluble purple formazan by cleavage of the tetrazolium ring by dehydrogenase enzymes. This water insoluble formazan can be solubilized using isopropanol or other solvents and the dissolved material is measured spectrophotometrically. The absorbance was measured as a function of concentration of converted dye. The conversion of the soluble dye to the insoluble purple formazan is utilized in assays for measurement of cell proliferation. […] We used this assay to measure the degree of cell death caused by the peptides. MCF-7 was maintained in EMEM, A2058 in DMEM and […]-29 in RPMI-1640 medium supplemented with 10% heat inactivated […] and 1% L-glutamine-L-alanine in a humidified atmosphere of 5% CO2 at 37° C. The human embryonic fibroblast cell line, MRC-5 (which is normal fibroblasts), was cultured as a monolayer in MEM medium, under the same conditions as described for the tumour cell lines. Cells to be used in the assay were grown to a minimum of 75% confluency, trypsinated and split to single cell suspension, counted and centrifuged at 1500 rpm for 10 min. The cell pellet was resuspended to a concentration of 2×10^5 cells/ml (HT-29) or 1×10^5 (MRC-5, MCF7 and A2058) in DMEM without FBS and L-glutamine-L-alanine (assay-medium). All cell lines were routinely tested for mycoplasma infection using a PCR-based mycoplasma detection kit (MycoSensor PCR Assay Kit, Stratagene), following the supplier's instructions. All cell lines were mycoplasma free. The cytotoxicity was measured using the MTT method (Mosmann, 1983), with minor modifications. Different human tumour cells (1-2×10^5) were applied in 96-well culture plates in a volume of 100 μl DMEM medium and incubated at 37° C. for 24 hours. The medium was removed and the cells were treated with 100 μl of peptide solution (concentrations ranging from 0 to 200 μg/ml), diluted in a) RPMI-1640 medium supplemented with 5% heat inactivated FBS, or b) RPMI-1640 medium without FBS. The plates were incubated at 37° C. for 24 hours. Cells treated with Triton X-100 (1%) was used as positive control (100% killing) whereas cells plus medium only were used as negative control. […] A volume of 70 μl of the supernatant was then removed and […] (0.04 M HCl in isopropanol) added to each well. The plate was placed on a shaker for 1 hour at room temperature and read spectrophotometrically at 590 nm in a microtiter plate reader (DTX880 Multimode Detector, Beckman Coulter).

[12] = system: human skin malignant melanoma cell line A2058; assay type: cell-based; conditions: 24 hours, maximum 200 μg/ml
Experimental: as §6

[13] = system: human embryonic lung fibroblast cell line MRC-5; assay type: cell-based; conditions: normal fibroblasts, 24 hours, maximum 200 μg/ml
Experimental: as §6

[14] = system: human breast malignant carcinoma cell line MCF-7; assay type: cell-based; conditions: 24 hours, maximum 200 μg/ml
Experimental: as §6

[15] = RPMI-1640 medium containing 5% FBS

## Polymyxin B [reference compound]
[1]
  Minimal inhibitory concentration (MIC), L. anguillarum: 0.8 µM
[2]
  Minimal inhibitory concentration (MIC), C. glutamicum: 1.6 µM
[3]
  Minimal inhibitory concentration, Escherichia coli, K15-58: 3.12 µM
[4]
  Minimal inhibitory concentration, Salmonella K14-40: 3.12 µM
[5]
  Minimal inhibitory concentration, Acinetobacter baumannilii, K15-9: 0.78 µM
[6]
  Minimal inhibitory concentration, Pseudomonas K15-60: 3.12 µM
[7]
  Minimal inhibitory concentration, Klebsiella K15-72: 6.25 µM
[8]
  Minimal inhibitory concentration, Citrobacter freundii, K15-75: 0.78 µM
[9]
  Minimal inhibitory concentration (MIC), E. coli: 0.8 µM
[10]
  Minimal inhibitory concentration (MIC), S. aureus: 6.3 µM

## CC[C@H](C)[C@@H]1NC(=O)[C@H](CO)NC(=O)[C@@H]2CCCN2C(=O)[C@H](C)NC(=O)CNC(=O)[C@H](CC(C)C)NC(=O)[C@H](CCCCN)NC(=O)[C@H](CCCCN)NC(=O)[C@H](CCSC)NC(=O)[C@H](CCCNC(=N)N)NC(=O)[C@H](Cc2c[nH]c3ccccc23)NC(=O)[C@H](CCC(N)=O)NC(=O)[C@H](Cc2c[nH]c3ccccc23)NC(=O)[C@H](CCCNC(=N)N)NC(=O)[C@H](CCCNC(=N)N)NC(=O)[C@@H](NC(=O)[C@H](CCCCN)NC(=O)[C@@H](N)Cc2ccccc2)CSSC[C@@H](C(=O)N[C@H](C(=O)N[C@@H](CCCNC(=N)N)C(=O)N[C@@H](CCCNC(=N)N)C(=O)N[C@@H](C)C(=O)N[C@@H](Cc2ccccc2)C(=O)O)C(C)C)NC(=O)[C@H]([C@@H](C)O)NC1=O [Lactoferricin B]
[1]
  Minimal inhibitory concentration (MIC), L. anguillarum: 3.1 µM (≈ 9.68 µg/mL)
[2]
  Minimal inhibitory concentration (MIC), C. glutamicum: 1.6 µM (≈ 5 µg/mL)
[9]
  Minimal inhibitory concentration (MIC), E. coli: 3.1 µM (≈ 9.68 µg/mL)
[10]
  Minimal inhibitory concentration (MIC), S. aureus: 6.3 µM (≈ 19.7 µg/mL)

## NC(Cc1c[nH]c2ccc(Br)cc12)C(=O)O [5-D/L-Br-Trp, 5-Bromo-D/L-tryptophan, reference compound]
[11]; [15]
  Antitumoral activity IC50, HT-29: — (The symbol “—” denotes no activity within the concentration range tested.)
[11]; serum-free RPMI-1640 medium
  Antitumoral activity IC50, HT-29: * (The symbol “*” denotes 30-50% killing at the highest concentration tested.)
[12]; [15]
  Antitumoral activity IC50, A2058: — (The symbol “—” denotes no activity within the concentration range tested.)
[12]; serum-free RPMI-1640 medium
  Antitumoral activity IC50, A2058: — (The symbol “—” denotes no activity within the concentration range tested.)
[13]; [15]
  IC50, MRC-5: * (The symbol “*” denotes 30-50% killing at the highest concentration tested.)
[13]; serum-free RPMI-1640 medium
  IC50, MRC-5: * (The symbol “*” denotes 30-50% killing at the highest concentration tested.)
[14]; [15]
  Antitumoral activity IC50, MCF-7: — (The symbol “—” denotes no activity within the concentration range tested.)
[14]; serum-free RPMI-1640 medium
  Antitumoral activity IC50, MCF-7: — (The symbol “—” denotes no activity within the concentration range tested.)

## P20: dimeric polypeptide from S. droebachiensis coelomocytes: first monomer SEQIDNO7, second monomer SEQIDNO8 (chain 1 SXFSRTVHNVGNAVRKGIHAGQGVCSGLGL; chain 2 DLRAICAGAHAL; not fully specified (bridges); X: residue not identified in the source; cysteine pairing not given here; also: heterodimer of two chains; listed as Strongylocentrotus droebachiensis) [Peptide P20]
[1]
  Minimal inhibitory concentration (MIC), L. anguillarum: 2.5 µM
[2]
  Minimal inhibitory concentration (MIC), C. glutamicum: 1.3 µM
[9]
  Minimal inhibitory concentration (MIC), E. coli: 2.5 µM
[10]
  Minimal inhibitory concentration (MIC), S. aureus: 5.0 µM

Source: patent US20100093642A1, “NOVEL POLYPEPTIDES” (priority 2006, published 2010)
